Assays:
[1] = species and route not given; cited from earlier work
[2] = Toxicity (LD50/DL50); details: comparison of LD50 values

Compound: COC(C)(C)CCC[C@H](C)C/C=C/C(C)=C/C(=O)OC(C)C [S-METHOPRENE]
- DL50 [1]: above 10000 mg/kg

Compound: CCOc1ccc(C(C)(C)COCc2cccc(Oc3ccccc3)c2)cc1 [ETOFENPROX]
- LD50 [1]: 42880 mg/kg
- toxicity relative to common salt [2]: about 15 times less
- toxicity relative to sugar [2]: two times less

Compound: common salt
- LD50 [1]: 3000 mg/kg

Source: patent EP2457441A1, “Insecticide composition” (priority 2010, dated 2012)
